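Method: 48-hour compound exposure of cells in 96-well plates, five concentrations, linear interpolation of endpoints. Abbreviation: GI50, concentration required for 50% inhibition of growth. Definition used: TGI = concentration required for complete inhibition of growth.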
Assays:
Experiment in all cases: NCI tumour cell line growth inhibition, 48 h
MCF7 breast = test system: MCF7 breast
HCC-2998 colon = test system: HCC-2998 colon
SR leukemia = test system: SR leukemia
HOP-92 NSCLC = test system: HOP-92 NSCLC
EKVX NSCLC = test system: EKVX NSCLC
SK-MEL-2 melanoma = test system: SK-MEL-2 melanoma
HCT-116 colon = test system: HCT-116 colon
COLO 205 colon = test system: COLO 205 colon
RPMI-8226 leukemia = test system: RPMI-8226 leukemia
MALME-3M melanoma = test system: MALME-3M melanoma

SMILES | GI50 (MCF7 breast) [µM] | TGI (MCF7 breast) [µM] | GI50 (HCC-2998 colon) [µM] | TGI (HCC-2998 colon) [µM] | GI50 (SR leukemia) [µM] | TGI (SR leukemia) [µM] | GI50 (HOP-92 NSCLC) [µM] | TGI (HOP-92 NSCLC) [µM] | GI50 (EKVX NSCLC) [µM] | TGI (EKVX NSCLC) [µM] | GI50 (SK-MEL-2 melanoma) [µM] | TGI (SK-MEL-2 melanoma) [µM] | GI50 (HCT-116 colon) [µM] | TGI (HCT-116 colon) [µM] | GI50 (COLO 205 colon) [µM] | TGI (COLO 205 colon) [µM] | GI50 (RPMI-8226 leukemia) [µM] | TGI (RPMI-8226 leukemia) [µM] | GI50 (MALME-3M melanoma) [µM] | TGI (MALME-3M melanoma) [µM]
COc1ccc(-c2nc3sccn3c2-c2ccnc(NCCNS(=O)(=O)c3ccc(C(F)(F)F)cc3)n2)cc1 | 3.15 | > 100 | 4.6 | > 100 | 0.972 | > 100 | 0.153 | 2.51 | 4.04 | > 100 | 3.04 | 9.26 | 0.729 | 4.61 | 3.29 | > 100 | 0.626 | 5.53 | 2.35 | 5.22
COc1ccc(N=Nc2ccc(O)c(=O)cc2)cc1 | 3.4 | > 100 | 4.04 | > 100 | 3.79 | > 100 | 2.66 | > 100 | 4.3 | > 100 | 5.01 | 41.1 | 2.58 | 15.4 | 7.07 | > 100 | 2.68 | 43.7 | 2.86 | 14.2
O=C(O)CN1C(=O)OC(c2ccccc2)C1=O (stereo unspecified) |  | > 100 |  |  |  | > 100 |  | > 100 |  | > 100 |  | > 100 |  | > 100 |  | > 100 |  | > 100 |  | > 100
CCCCCCCCCN=C(N)c1ccc(N2CCN(c3ccc(C(N)=NCCCCCCCCC)cc3)CC2)cc1 | 0.704 | 1.54 | 1.82 | 6.14 | 2.75 | > 50 | 4.1 | > 50 | 1.95 | 7.72 | 2.88 | > 50 |  |  | 1.78 | 7.94 | 1.96 | > 50 | 1.37 | 3.74
O=C(CCN1CCCCC1)c1csc2ccccc12 |  | 48.1 |  |  |  | > 100 |  | > 100 |  | > 100 |  | > 100 |  | > 100 |  | > 100 |  | > 100 |  | > 100
COc1cc(-c2oc3c(OC)c(O)c(OC)c(O)c3c(=O)c2OC)cc(OC)c1OC |  | > 100 |  | > 100 |  | > 100 |  |  |  | > 100 |  | > 100 |  | > 100 |  | > 100 |  | > 100 |  | > 100
CC(=O)OC1C(O)C(C)OC(OC2C(OC(=O)C3CCC4C(C3)OC3(CC(OC(=O)/C=C/c5ccccc5)C(C)CO3)C43CO3)OC(C)C(O)C2OC(C)=O)C1O (stereo unspecified) |  | 0.0825 |  | 0.0148 |  | > 2.5 |  | 0.0344 |  | 0.074 |  | 0.0189 |  | 0.0785 |  | 0.0181 |  | 0.0945 |  | < 0.0185
COc1cc2c(Nc3ccc(-c4ccc(N)cc4)cc3)ncnc2c(OC)c1OC | 3.54 | > 100 |  |  | 5.5 | 84.9 | 18.3 | > 100 | 5.4 | > 100 | 4.96 | > 78.1 | 3.79 | 55.3 | 2.6 | 7.94 | 3.78 | 41.4 | 22.4 | > 92.2
CCN1C(=O)/C(=c2\sc3n(c2=O)C2C(NN=3)N(CC)C(=O)N2CC)c2ccccc21 (stereo unspecified) | 0.357 | > 100 | 0.859 | > 76.8 | 0.357 | > 100 | 1.13 | 25.6 | 0.851 | > 100 | 3.21 | 44.2 | 0.463 | > 54.3 | 0.468 | 11.3 | 0.366 |  | 0.596 | > 100
COc1cc(/C=C2\CCC/C(=C\c3cc(CN4CCCC4)c(O)c(OC)c3)C2=O)cc(CN2CCCC2)c1O | 4.82 | 23.6 | 2.55 | 6.38 | 2.56 | 11.8 | 2.11 | 11.8 | 6.94 | 20.2 | 5.09 | 19.5 | 1.66 | 3.36 | 1.19 | 2.76 | 2.16 | 7.58 | 2.73 | 6.41
Cc1nc2ccc(-n3ncc(C(=O)c4cc5ccccc5[nH]4)c3N)cc2[nH]1 | 4.52 | > 100 | 14.4 | > 100 | 2.82 | 31.2 | 21.9 | 98.9 | 20.9 | > 100 | 25.9 | 88.5 | 4.51 | > 100 | 4.77 | 29.1 | 8.1 | 54.7 | 13.9 | 83.1
O=C1CCc2cc(Br)ccc2O1 |  | > 100 |  | > 100 |  | > 100 |  | > 100 |  | > 100 |  | > 100 |  | > 100 |  | > 100 |  | > 100 |  | > 100
CC1(C)CC[C@]23CC[C@]4(C)[C@H](CC[C@@H]5[C@@]6(C)CCCNC(C)(C)[C@@H]6CC[C@]54C)[C@H]2[C@H]1OC3 | 1.44 | 3.01 | 1.54 | 2.97 | 1.49 | 4.12 |  |  | 1.68 | 3.37 | 1.95 | 4.09 | 1.52 | 2.88 | 1.28 | 2.68 | 1.94 | 4.58 | 1.79 | 3.47
O=C1/C(=C/c2ccc(Cl)cc2)CN(Cc2cn(CCCNc3ccnc4cc(Cl)ccc34)nn2)C/C1=C\c1ccc(Cl)cc1 | 0.362 | 1.46 | 0.273 | 0.712 | 0.379 | 1.93 | 1.46 | 3.18 |  |  | 2.03 | 3.71 | 0.305 | 0.833 | 0.565 | 1.8 | 0.285 | 0.878 | 1.71 | 3.28
CCN1CCN(Cc2ccc(NC(=O)Nc3nc(-c4cc(OC)c(OC)c(OC)c4)cs3)cc2C(F)(F)F)CC1 | 1.44 | 3.02 | 1.8 | 3.4 | 1.2 | 3.08 | 1.23 | 4.23 | 1.81 | 4.25 | 1.9 | 3.61 | 1.48 | 2.84 | 1.58 | 3.2 | 1.63 | 4.24 |  | 
CCOc1cc(Cl)c(C(C)NC(=O)c2cccc(OC)c2)cc1OCC (stereo unspecified) | 4.6 | > 100 | 28.8 | > 100 | 3.92 | > 100 | 12.1 | > 85.6 |  |  | 4.67 | > 100 | 4.48 | > 100 | 7.17 | 47.3 | 16.1 | > 100 | 9.42 | > 100
Cc1ccc2ncnc(N(C)C3CCCCC3)c2c1 | 41.3 | > 100 | 28.8 | 70.2 | 17.4 | 44.9 | 14.6 | 42.7 |  |  | 37.5 | > 100 | 36.7 | > 100 | 35.1 | > 100 | 6.11 | 28.7 | 56 | > 100
Cc1cc(S(=O)(=O)Nc2nc3ccccc3c(=O)n2Cc2ccco2)c(S)cc1Cl | 41.5 | > 100 | 38.6 | > 100 | 19.5 | 40.7 | > 100 | > 100 | 22.8 | 70.6 |  |  | 42.3 | > 100 | > 100 | > 100 | 27 | > 100 | 54.8 | > 100
O=C1NC(c2ccc3ccccc3c2)Nc2ccccc21 (stereo unspecified) |  | > 100 |  | > 100 |  | > 100 |  | > 100 |  | > 100 |  | > 100 |  | > 100 |  | > 100 |  | 69.8 |  | 
CC(=O)Oc1ccc(C2OC(c3ccc4ccccc4c3OC(C)=O)=NN2C(C)=O)c(OC(C)=O)c1 (stereo unspecified) | 0.413 | > 38.6 | 0.427 | 29 | 0.198 | > 34.5 | 0.252 | > 29.5 |  |  | 0.602 | > 48.7 | 0.328 | > 40.2 | 0.377 | > 32.3 | 0.568 | > 39.5 | 0.407 | 5.12
CCN1CCN(Cc2ccc(Nc3ncc(F)c(-c4cc(F)c5nc(C)n(C(C)C)c5c4)n3)nc2)CC1 | 0.0241 | 10.4 | 5.35 | 11.5 | 0.101 | 6.92 | 0.0337 | 50 |  |  | > 50 | > 50 | 0.336 | 11.7 | 0.218 | 6.26 | 6.68 | 19.1 | 0.0557 | 10.5
Nc1c(C(=O)Nc2cccc(Cl)c2)sc2nc3c(cc12)C(O)CCC3 (stereo unspecified) | 0.344 | 53.4 | 2.39 | 25.7 | 0.258 | 28.6 | 0.824 | 38.2 |  |  | 0.585 | 48.6 | 0.44 | 19.1 | 0.348 | 3.53 | 0.36 | 5.01 | 0.485 | 33.3
CC1(C)N=C(N)N=C(N)N1c1ccc(OCC(=O)Nc2ccc(S(=O)(=O)F)cc2Cl)c(Cl)c1 | 2.24 | > 100 | 23.2 | > 100 | 0.82 | > 100 |  |  | > 100 | > 100 | > 100 | > 100 | 2.7 | > 100 | 21.1 | > 100 | 64.9 | > 100 | 33.8 | > 100
CNC(=O)/C=C/C1=CN2C(=O)c3ccc(C)c(O)c3NC(OC)C2C1 (stereo unspecified) |  | 16.6 |  | < 0.0173 |  | 0.0598 |  |  |  | < 0.0344 |  | < 0.01 |  | > 4.64 |  | < 0.0202 |  | 16.2 |  | 0.0448
CCOC(=O)c1c(C)n([O-])c2cc(F)c(F)cc2[n+]1=O | 4.32 | > 37.4 |  |  | 0.0482 | > 100 | 1.1 | 3.08 | 1.96 | 3.98 | 2.8 |  | 0.351 | 1.28 | 1.94 | 4.54 | 6.18 | 28.2 | 0.717 | 1.83
CS(=O)(=O)N1CCC(Nc2ncc(C(=O)c3c(F)cccc3F)c(N)n2)CC1 | 2.11 | > 25 | 12.9 | > 25 | 3.79 | > 18.5 | 1.96 | > 20.8 |  |  | > 20.9 | > 25 | 6 | > 25 | 6.26 | > 25 | 7.67 | > 25 | 10.6 | > 25
CC(C)C[C@H](NC(=O)[C@@H](Cc1ccccc1)n1ccc(Nc2ccccc2)cc1=O)B(O)O | 0.374 | 14.6 | 0.353 | 1.36 | 0.0955 | 2.02 | 0.386 | 2.45 |  |  | 0.316 | 1.59 | 0.257 | 1.23 | 0.545 | 13.1 | 0.154 | 3.87 | 0.382 | 2.48
COc1ccc(OC)c(C2=C(c3cn(C)c4ccccc34)C(=O)NC2=O)c1 | > 20.7 | > 25 | > 25 | > 25 | 16.1 | > 25 | > 25 | > 25 |  |  | > 25 | > 25 | > 25 | > 25 | > 25 | > 25 | > 25 | > 25 | > 25 | > 25
